From patent publication US20220169654A1, “New Organic Compounds” (Servier Pharmaceuticals LLC, priority 2020, published 2022) come the findings set out here.

Test [1] has as its system SAM in HCT116 human colon carcinoma cell line with MTAP gene deleted (MTAP −/−). The test is described as follows: Cellular assay of target engagement (SAM), LC-MS/MS, 72 hrs. It is filed as cell-based. The note with it: HCT-116, IC50 bin with Max Inh., read-out: Cell 72 h SAM Inhibition (MTAP −/−). An outline of the steps: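 SAM levels were quantified by LC-MS/MS (m/z 399.2→250.1, d3-SAM internal standard) from cold methanol/acetic acid extracts, yielding IC50. Compound was applied as a 10-point 3-fold series for 72 hrs to MTAP −/− HCT116 cells seeded 24 hours before.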

A further test relates to HCT116 MTAP−/−. Briefly: Inhibition of cellular proliferation, 4 days, Cell Titer Glo, HCT116 MTAP−/−. It is filed as cell-based. As to conditions: Homo sapiens, HCT-116, 96 h, IC50 bin with Max Inh., read-out: 4 Day Relative Growth Inhibition (MTAP −/−). An outline of the steps:
(§1)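 IC50 derived from blank-corrected ATP luminescence (Cell Titer Glo) expressed relative to within-plate 0.2% DMSO wells. Compound, as a 10-point 3-fold series, was added 24 h after seeding the MTAP+/+ or MTAP−/− HCT116 cells and incubated 4 days at 37° C./5% CO2.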

The next test addresses T1, MAT2A homodimer (Homo sapiens, UniProt P31153).
T1 construct: inferred from Ni sepharose purification with imidazole elution; made in house; host or cells: Sf9 insect cells, baculovirus (Bac to Bac, pFASTBAC1)
Briefly: MAT2A inhibition (biochemical, liberated phosphate, PiColorLock Gold). The note with it: recombinant MAT2A homodimer; IC50 bin with Max Inh.; read-out: Enzyme Inhibition Bin. An outline of the steps: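 Enzyme at 4 μg/mL and compound equilibrated 60 min at 25 °C, then 60 min reaction after adding substrate mix (500 μM ATP, 400 μM methionine). Released phosphate quantified by colorimetric kit against a phosphate standard curve to give IC50. Secondary format used 1 μg/mL enzyme with 5 h incubation.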

The next test deals with HCT116 MTAP+/+. Briefly: Inhibition of cellular proliferation, 4 days, Cell Titer Glo, HCT116 MTAP+/+. It is filed as cell-based. As to conditions: Homo sapiens, HCT-116, 96 h, IC50 bin with Max Inh., read-out: 4 Day Relative Growth Inhibition (MTAP +/+). An outline of the steps: as §1
(In general: ATP-based viability assays read luminescence as a measure of living cells.)

T1 sequence (P31153 whole entry): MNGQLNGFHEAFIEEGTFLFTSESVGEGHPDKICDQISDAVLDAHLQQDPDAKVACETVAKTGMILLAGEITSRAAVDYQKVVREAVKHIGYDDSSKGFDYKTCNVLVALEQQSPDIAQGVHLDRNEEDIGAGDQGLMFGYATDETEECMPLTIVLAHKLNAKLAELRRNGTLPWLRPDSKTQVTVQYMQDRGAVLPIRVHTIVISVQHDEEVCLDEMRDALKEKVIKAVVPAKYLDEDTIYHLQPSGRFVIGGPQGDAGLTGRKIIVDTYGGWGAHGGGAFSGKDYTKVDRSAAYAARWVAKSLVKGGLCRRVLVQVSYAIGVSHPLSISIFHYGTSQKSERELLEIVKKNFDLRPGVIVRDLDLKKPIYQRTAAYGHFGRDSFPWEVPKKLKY

As to `Cc1cc2nn(-c3ccc4nn(C)cc4c3)c(=O)c(-c3ccc(C4CC4)nc3)c2n1CC1CC1` [Example 263, 5-(cyclopropylmethyl)-4-(6-cyclopropylpyridin-3-yl)-6-methyl-2-(2-methyl-2H-indazol-5-yl)-2,5-dihydro-3H-pyrrolo[3,2-c]pyridazin-3-one], the IC50 in test [1] was < 100 nM; in the test with HCT116 MTAP−/−, > 1000 nM; on MAT2A homodimer, < 1000 nM; in the test with HCT116 MTAP+/+, > 1000 nM.
As for `Cn1cc2cc(-n3nc4ncn(CC5CC5)c4c(-c4ccc(OC(F)F)cc4)c3=O)ccc2n1` [Example 186, 5-(cyclopropylmethyl)-4-[4-(difluoromethoxy)phenyl]-2-(2-methyl-2H-indazol-5-yl)-2H,3H,5H-imidazo[4,5-c]pyridazin-3-one], the IC50 was < 100 nM in test [1], < 100 nM in the test on HCT116 MTAP−/−, < 100 nM on MAT2A homodimer and 100 to 1000 nM in the test on HCT116 MTAP+/+.
Consider `Cn1cc2cc(-n3nc4ncn(CC5CC5)c4c(-c4ccc(C5CC5)cc4)c3=O)ccc2n1` [Example 192, 5-(cyclopropylmethyl)-4-(4-cyclopropylphenyl)-2-(2-methyl-2H-indazol-5-yl)-2,5-dihydro-3H-imidazo[4,5-c]pyridazin-3-one], for which the IC50 in test [1] is < 100 nM; in the test on HCT116 MTAP−/−, < 100 nM; on MAT2A homodimer, < 100 nM; in the test on HCT116 MTAP+/+, 100 to 1000 nM.
On to `[2H]C([2H])([2H])n1cc2cc(-n3nc4c(C(=O)NC)cn(CC5CC5)c4c(-c4ccc(C5CC5)nc4)c3=O)ccc2n1` [Example 172, 5-(cyclopropylmethyl)-4-(6-cyclopropylpyridin-3-yl)-N-methyl-2-(2-(methyl-d3)-2H-indazol-5-yl)-3-oxo-3,5-dihydro-2H-pyrrolo[3,2-c]pyridazine-7-carboxamide], for which the IC50 in test [1] is < 100 nM; with HCT116 MTAP−/− it was < 100 nM; at MAT2A homodimer it was < 100 nM; in the test on HCT116 MTAP+/+ it was > 1000 nM.
Take `[2H]C([2H])([2H])Oc1ccc(-c2c(=O)n(-c3ccc4nn(C)cc4c3)nc3c(C#N)cn(CC4CC4)c23)cc1` [Example 161, 5-(cyclopropylmethyl)-4-(4-(methoxy-d3)phenyl)-2-(2-methyl-2H-indazol-5-yl)-3-oxo-3,5-dihydro-2H-pyrrolo[3,2-c]pyridazine-7-carbonitrile]: the IC50 is < 100 nM in test [1], < 100 nM in the test on HCT116 MTAP−/−, < 100 nM on MAT2A homodimer and > 1000 nM in the test on HCT116 MTAP+/+.
Turning to `[2H]C([2H])([2H])Oc1ccc(-c2c(=O)n(-c3ccc4nn(C)cc4c3)nc3ncn(CC4CC4)c23)cc1` [Example 194, 5-(cyclopropylmethyl)-4-(4-(methoxy-d3)phenyl)-2-(2-methyl-2H-indazol-5-yl)-2,5-dihydro-3H-imidazo[4,5-c]pyridazin-3-one], the IC50 is < 100 nM in test [1], < 100 nM in the test with HCT116 MTAP−/−, < 100 nM at MAT2A homodimer and 100 to 1000 nM with HCT116 MTAP+/+.
`Cn1cc2cc(-n3nc4c(C(N)=O)cn(CC5CC5)c4c(-c4ccc(C5CC5)nc4)c3=O)ccc2n1` [Example 165, 5-(cyclopropylmethyl)-4-(6-cyclopropylpyridin-3-yl)-2-(2-methyl-2H-indazol-5-yl)-3-oxo-3,5-dihydro-2H-pyrrolo[3,2-c]pyridazine-7-carboxamide]: the IC50 was < 100 nM in test [1], < 100 nM in the test with HCT116 MTAP−/−, < 100 nM at MAT2A homodimer and 100 to 1000 nM with HCT116 MTAP+/+.
On to `Cc1nc2ccc(-n3nc4c(C#N)cn(CC5CC5)c4c(-c4ccc(C5CC5)nc4)c3=O)cc2n1C` [Example 148, 5-(cyclopropylmethyl)-4-(6-cyclopropylpyridin-3-yl)-2-(1,2-dimethyl-1H-benzo[d]imidazol-6-yl)-3-oxo-3,5-dihydro-2H-pyrrolo[3,2-c]pyridazine-7-carbonitrile], for which the IC50 (in test [1]; in the test with HCT116 MTAP−/−; at MAT2A homodimer; in the test with HCT116 MTAP+/+) was < 100 nM throughout.
Turning to `CCCn1cc(C#N)c2nn(-c3ccc4nn(C)cc4c3)c(=O)c(-c3ccc(C4CC4)nc3)c21` [Example 127, 4-(6-cyclopropylpyridin-3-yl)-2-(2-methyl-2H-indazol-5-yl)-3-oxo-5-propyl-3,5-dihydro-2H-pyrrolo[3,2-c]pyridazine-7-carbonitrile], the IC50 in test [1] is < 100 nM; in the test with HCT116 MTAP−/−, 100 to 1000 nM; at MAT2A homodimer, < 100 nM; in the test on HCT116 MTAP+/+ it was > 1000 nM.
Consider `Cc1ccc(-c2c(=O)n(-c3ccc4nc(C)n(C)c4c3)nc3c(C#N)cn(CC4CC4)c23)cn1` [Example 151, 5-(cyclopropylmethyl)-2-(1,2-dimethyl-1H-benzo[d]imidazol-6-yl)-4-(6-methylpyridin-3-yl)-3-oxo-3,5-dihydro-2H-pyrrolo[3,2-c]pyridazine-7-carbonitrile], for which the IC50 in test [1] was < 100 nM; in the test with HCT116 MTAP−/− it was < 100 nM; on MAT2A homodimer it was < 100 nM; in the test with HCT116 MTAP+/+, > 1000 nM.
In the case of `Cn1cc2cc(-n3nc4cnn(CC5CC5)c4c(-c4ccc(OC(F)F)cc4)c3=O)ccc2n1` [Example 218, 1-(cyclopropylmethyl)-7-(4-(difluoromethoxy)phenyl)-5-(2-methyl-2H-indazol-5-yl)-1,5-dihydro-6H-pyrazolo[4,3-c]pyridazin-6-one], the IC50 in test [1] is < 100 nM; with HCT116 MTAP−/−, < 100 nM; at MAT2A homodimer it was < 100 nM; in the test on HCT116 MTAP+/+, 100 to 1000 nM.
As to `Cn1nc2ccc(-n3nc4c(C(F)(F)F)cn(CC5CC5)c4c(-c4ccc(C5CC5)nc4)c3=O)cc2c1C(F)(F)F` [Example 242, 5-(cyclopropylmethyl)-4-(6-cyclopropylpyridin-3-yl)-2-(2-methyl-3-(trifluoromethyl)-2H-indazol-5-yl)-7-(trifluoromethyl)-2,5-dihydro-3H-pyrrolo[3,2-c]pyridazin-3-one], the IC50 in test [1] is 100 to 1000 nM; in the test with HCT116 MTAP−/−, 100 to 1000 nM; on MAT2A homodimer, < 100 nM; with HCT116 MTAP+/+ it was 100 to 1000 nM.
As to `Cn1cc2cc(-n3nc4c(C(F)F)cn(CC5CC5)c4c(-c4ccc(C5CC5)nc4)c3=O)ccc2n1` [Example 240, 5-(cyclopropylmethyl)-4-(6-cyclopropylpyridin-3-yl)-7-(difluoromethyl)-2-(2-methyl-2H-indazol-5-yl)-2,5-dihydro-3H-pyrrolo[3,2-c]pyridazin-3-one], the IC50 is < 100 nM in test [1], < 100 nM with HCT116 MTAP−/−, < 100 nM on MAT2A homodimer and 100 to 1000 nM in the test with HCT116 MTAP+/+.
As to `[2H]C([2H])([2H])Oc1ccc(-c2c(=O)n(-c3ccc4nn(C)cc4c3)nc3c(C(=O)NC)cn(CC4CC4)c23)cc1` [Example 174, 5-(cyclopropylmethyl)-4-(4-(methoxy-d3)phenyl)-N-methyl-2-(2-methyl-2H-indazol-5-yl)-3-oxo-3,5-dihydro-2H-pyrrolo[3,2-c]pyridazine-7-carboxamide], the IC50 in test [1] is < 100 nM; with HCT116 MTAP−/−, < 100 nM; at MAT2A homodimer, < 100 nM; with HCT116 MTAP+/+ it was 100 to 1000 nM.
Take `Cc1ccc(-c2c(=O)n(-c3ccc4nn(C)cc4c3)nc3[nH]c(=O)n(CC4CC4)c23)cn1` [Example 207, 5-(cyclopropylmethyl)-2-(2-methyl-2H-indazol-5-yl)-4-(6-methylpyridin-3-yl)-2,7-dihydro-3H-imidazo[4,5-c]pyridazine-3,6(5H)-dione]: the IC50 in test [1] was < 100 nM; with HCT116 MTAP−/− it was 100 to 1000 nM; on MAT2A homodimer, < 100 nM; in the test on HCT116 MTAP+/+, > 1000 nM.
For `C#Cc1cn(CC2CC2)c2c(-c3ccc(C4CC4)nc3)c(=O)n(-c3ccc4nn(C)cc4c3)nc12` [Example 244, 5-(cyclopropylmethyl)-4-(6-cyclopropylpyridin-3-yl)-7-ethynyl-2-(2-methyl-2H-indazol-5-yl)-2,5-dihydro-3H-pyrrolo[3,2-c]pyridazin-3-one], the IC50 in test [1] was < 100 nM; in the test with HCT116 MTAP−/−, < 100 nM; on MAT2A homodimer, < 100 nM; in the test with HCT116 MTAP+/+, 100 to 1000 nM.
Consider `CNC(=O)c1cn(CC2CC2)c2c(-c3ccc(C4CC4)nc3)c(=O)n(-c3ccc4nn(C)cc4c3)nc12` [Example 162, 5-(cyclopropylmethyl)-4-(6-cyclopropylpyridin-3-yl)-N-methyl-2-(2-methyl-2H-indazol-5-yl)-3-oxo-2H,3H,5H-pyrrolopyridazine-7-carboxamide], for which the IC50 in test [1] is < 100 nM; in the test with HCT116 MTAP−/− it was < 100 nM; at MAT2A homodimer, < 100 nM; with HCT116 MTAP+/+, 100 to 1000 nM.
In the case of `COc1ccc(-c2c(=O)n(-c3ccc4nn(C)cc4c3)nc3ncn(CC4CC4)c23)cc1` [Example 193, 5-(cyclopropylmethyl)-4-(4-methoxyphenyl)-2-(2-methyl-2H-indazol-5-yl)-2,5-dihydro-3H-imidazo[4,5-c]pyridazin-3-one], the IC50 in test [1] is < 100 nM; with HCT116 MTAP−/−, < 100 nM; on MAT2A homodimer, < 100 nM; in the test on HCT116 MTAP+/+, > 1000 nM.
